Source: ChEMBL document CHEMBL1157530, “Cytotoxic and antibacterial sesquiterpenes from Thespesia populnea” (J Nat Prod, 2008)
Converted amounts (≈) assume the structure as drawn.

How the values were obtained:
MCF7 = test: Cytotoxicity against human MCF7 cells by SRB assay; type: functional, cell-based
HeLa = test: Cytotoxicity against human HeLa cells by SRB assay; type: functional, cell-based
HT-29 = test: Cytotoxicity against human HT29 cells by SRB assay; type: functional, cell-based
KB = test: Cytotoxicity against human KB cells by SRB assay; type: functional, cell-based
Bacillus subtilis = test: Antibacterial activity against Bacillus subtilis; type: functional
Staphylococcus aureus = test: Antibacterial activity against Staphylococcus aureus TISTR517; type: functional
Enterococcus faecalis = test: Antibacterial activity against Enterococcus faecalis; type: functional

For `Cc1cc2c(C(C)C)ccc(C)c2cc1O`, the IC50 (MCF7) was greater than 5 µg/mL, the IC50 (HeLa) was greater than 5 µg/mL and the IC50 (HT-29) was greater than 5 µg/mL. It also gave an IC50 (KB) greater than 5 µg/mL and an MIC (Bacillus subtilis) of 0.59 µg/mL (≈ 2.75 µM).

`COc1c(O)c(C=O)c2c(O)c(-c3c(C)cc4c(C(C)C)c(OC)c(O)c(C=O)c4c3O)c(C)cc2c1C(C)C` [6,6'-METHOXYGOSSYPOL] showed an IC50 (MCF7) of 4 µg/mL (≈ 7.32 µM), an IC50 (HeLa) greater than 5 µg/mL and an IC50 (HT-29) of 3 µg/mL (≈ 5.49 µM). For the same molecule, the IC50 (KB) was greater than 5 µg/mL, the MIC (Bacillus subtilis) was 2.34 µg/mL (≈ 4.28 µM) and the MIC (Staphylococcus aureus) was 4.69 µg/mL (≈ 8.58 µM). It also gave an MIC (Enterococcus faecalis) of 1.17 µg/mL (≈ 2.14 µM).

In the case of `Cc1cc2c(C(C)C)c(O)c(O)c(C=O)c2c(O)c1-c1c(C)cc2c(C(C)C)c(O)c(O)c(C=O)c2c1O` [GOSSYPOL], the IC50 (HeLa) is reported as 0.08 µg/mL (≈ 0.154 µM), the IC50 (HT-29) is reported as greater than 5 µg/mL and the IC50 (KB) is reported as 0.04 µg/mL (≈ 0.0771 µM). The MIC (Bacillus subtilis) was 1.17 µg/mL (≈ 2.26 µM) and the MIC (Staphylococcus aureus) was 1.17 µg/mL (≈ 2.26 µM).

Work on `CC1=Cc2c(c(C)cc3c2C(C)CO3)C(=O)C1=O` (configuration not stated) [MANSONONE D] yielded an IC50 (MCF7) of 0.8 µg/mL (≈ 3.3 µM), an IC50 (HeLa) of 2.8 µg/mL (≈ 11.6 µM) and an IC50 (HT-29) greater than 5 µg/mL. The IC50 (KB) was 4.9 µg/mL (≈ 20.2 µM) and the MIC (Bacillus subtilis) was 2.34 µg/mL (≈ 9.66 µM).

With `CC1=C2OCC(C)c3ccc(C)c(c32)C(=O)C1=O` (configuration not stated) [MANSONONE E] the IC50 (MCF7) was 0.05 µg/mL (≈ 0.206 µM), the IC50 (HeLa) was 0.55 µg/mL (≈ 2.27 µM) and the IC50 (HT-29) was 0.18 µg/mL (≈ 0.743 µM). For the same molecule, the IC50 (KB) was 0.4 µg/mL (≈ 1.65 µM) and the MIC (Bacillus subtilis) was 4.69 µg/mL (≈ 19.4 µM).

Work on `CC1=CC2=C(C(C)C)C(=O)CC(C)C2=C(O)C1=O` (configuration not stated) [MANSONONE S] yielded an IC50 (MCF7) greater than 5 µg/mL, an IC50 (HeLa) greater than 5 µg/mL and an IC50 (HT-29) greater than 5 µg/mL. For the same molecule, the IC50 (KB) was greater than 5 µg/mL.

With `CC1=Cc2c(c(C)cc3c2C(C)COC3(C)C)C(=O)C1=O` (configuration not stated) [POPULENE C] the IC50 (MCF7) was 2.35 µg/mL (≈ 8.26 µM), the IC50 (HeLa) was 3.4 µg/mL (≈ 12 µM) and the IC50 (HT-29) was 2.9 µg/mL (≈ 10.2 µM). It also gave an IC50 (KB) of 3 µg/mL (≈ 10.6 µM), an MIC (Bacillus subtilis) of 4.69 µg/mL (≈ 16.5 µM) and an MIC (Staphylococcus aureus) greater than 10 µg/mL.

`Cc1cc2c(c(O)c1O)[C@H](C)CC1=C2[C@@H](C)COC1(C)C` [POPULENE D] was tested, and the IC50 (MCF7) was 1.85 µg/mL (≈ 6.41 µM), the IC50 (HeLa) was 0.95 µg/mL (≈ 3.29 µM) and the IC50 (HT-29) was 2.37 µg/mL (≈ 8.22 µM). It also gave an IC50 (KB) of 3.1 µg/mL (≈ 10.7 µM) and an MIC (Bacillus subtilis) of 4.69 µg/mL (≈ 16.3 µM).
